Test results reported in patent US4782154A, “Isoquinoline derivatives” (Mitsui Toatsu Chemicals, Inc., priority 1986, dated 1988).

System: Mongrel dogs
Assay: Recovery of LV dP/dtmax in propranolol-induced heart failure state, anesthetized dogs (Test Example 1)
Type: in vivo
Details: iv; for ED100: Canis lupus familiaris, dose required for recovering the reduction in LV dP/dtmax to the value before propranolol administration, anesthetized mongrel dogs; for Blood pressure: change in BP at ED100, variation coefficient relative to the values of the stable (heart failure) state; for Blood pressure / Number of heart beat: dogs; for Number of heart beat: change in HR at ED100, variation coefficient relative to the values of the stable (heart failure) state
Experimental: Mongrel dogs of either sex, weighing 8 to 12 kg, were anesthetized with sodium pentobarbital (30 mg/kg i.v.). The left ventricular pressure (LVP) was measured with a sensor tip transducer and the maximum rate of rise of LVP (LV dP/dtmax) was calculated by an electronic differentiator. Polyethylene cannulae were inserted into the femoral artery to measure systemic blood pressure (BP) and into the femoral veins for administration or infusion of chemicals. BP was measured with a pressure transducer and heart rate (HR) by a cardiotachometer from the pressure pulse. The respective parameters were simultaneously recorded on a multichannel polygraph.
To induce and maintain heart failure state, propranolol was administered in a bolus injection (4 mg/kg i.v.) followed by an infusion (0.1 mg/kg/min i.v.). […] The dose of tested chemicals required for recovering the reduction in the LV dP/dtmax to the value before the propranolol administration was determined and defined as an ED100. The changes in BP and HR at ED100 were expressed by the variation coefficient relative to the values of the stable state.

| Compound | ED100 [mg/kg] | Blood pressure [%] | Number of heart beat |
| --- | --- | --- | --- |
| CCc1[nH]c(=O)c(C(C)=O)c2c1CC(c1ccncc1)CC2 (stereo not drawn) [Example 1, 4-acetyl-1-ethyl-7-(4-pyridyl)-5,6,7,8-tetrahydro-3(2H)isoquinolinone] | 1 | -32.1 | +17.3% |
| CCCCc1[nH]c(=O)c(C(C)=O)c2c1CC(c1ccncc1)CC2 (stereo not drawn) [Example 2, 4-acetyl-1-butyl-7-(4-pyridyl)-5,6,7,8-tetrahydro-3-(2H)isoquinolinone] | 3 | -11.5 | +18.3% |
| CC(=O)c1c2c(c(C3CC3)[nH]c1=O)CC(c1ccncc1)CC2 (stereo not drawn) [Example 3] | 3 | -27.8 | +30.6% |
| CCC(=O)c1c2c(c(C)[nH]c1=O)CC(c1ccncc1)CC2 (stereo not drawn) [Example 4, 1-methyl-4-propionyl-7-(4-pyridyl)-5,6,7,8-tetrahydro-3(2H)isoquinolinone] | 3 | -18.0 | +26.2% |
| CCCC(=O)c1c2c(c(C)[nH]c1=O)CC(c1ccncc1)CC2 (stereo not drawn) [Example 5, 4-butylyl-1-methyl-7-(4-pyridyl)5,6,7,8-tetrahydro-3(2H)isoquinolinone] | 3 | -20.2 | +23.7% |
| CCCCC(=O)c1c2c(c(C)[nH]c1=O)CC(c1ccncc1)CC2 (stereo not drawn) [Example 6, 1-methyl-7-(4-pyridyl)5,6,7,8-tetrahydro-4-valeryl-3(2H)isoquinolinone] | 3 | -10.5 | +19.8% |
| Cc1[nH]c(=O)c(C(=O)c2ccccc2)c2c1CC(c1ccncc1)CC2 (stereo not drawn) [Example 7, 4-benzoyl-1-methyl-7-(4-pyridyl)5,6,7,8-tetrahydro-3(2H)isoquinolinone] | 3 | -28.3 | +29.6% |
| CCc1c2c(c(C)[nH]c1=O)CC(c1ccncc1)CC2 (stereo not drawn) [Example 8, 4-ethyl-1-methyl-7-(4-pyridyl)-5,6,7,8-tetrahydro-3(2H)isoquinolinone] | 0.03 | -22.5 | +25.3% |
| CCCc1c2c(c(C)[nH]c1=O)CC(c1ccncc1)CC2 (stereo not drawn) [Example 9, 1-methyl-4-propyl-7-(4-pyridyl)-5,6,7,8-tetrahydro-3(2H)isoquinolinone] | 0.3 | -16.6 | +14.4% |
| Cc1[nH]c(=O)c(C=O)c2c1CC(c1ccncc1)CC2 (stereo not drawn) [Example 10, 4-formyl-1-methyl-7-(4-pyridyl)-5,6,7,8-tetrahydro-3(2H)isoquinolinone] | 3 | -17.5 | +24.2% |
| Cc1[nH]c(=O)c(C)c2c1CC(c1ccncc1)CC2 (stereo not drawn) [Example 11, 1,4-dimethyl-7-(4-pyridyl)-5,6,7,8-tetrahydro-3(2H)isoquinolinone] | 0.3 | -28.5 | +21.0% |
| Cc1[nH]c(=O)c(C(C)O)c2c1CC(c1ccncc1)CC2 (stereo not drawn) [Example 12, 4-(1-hydroxyethyl)-1-methyl-7-(4-pyridyl)-5,6,7,8-tetrahydro-3(2H)isoquinolinone] | 3 | -19.7 | +22.5% |
| Cc1[nH]c(=O)c(CO)c2c1CC(c1ccncc1)CC2 (stereo not drawn) [Example 13, 4-(hydroxymethyl)-1-methyl-7-(4-pyridyl)-5,6,7,8-tetrahydro-3(2H)isoquinolinone] | 0.3 | -2.6 | +20.0% |
| Cc1[nH]c(=O)c(C(C)(C)O)c2c1CC(c1ccncc1)CC2 (stereo not drawn) [Example 14, 4-(2-(2-hydroxypropyl))-1-methyl-7-(4-pyridy)-5,6,7,8-tetrahydro-3(2H)isoquinolinone] | 0.1 | -9.3 | +32.6% |
| C=C(C)c1c2c(c(C)[nH]c1=O)CC(c1ccncc1)CC2 (stereo not drawn) [Example 15, 4-isopropenyl-1-methyl-7-(4-pyridyl)-5,6,7,8-tetrahydro-3(2H)isoquinolinone] | 0.03 | -16.4 | +28.6% |
| Cc1[nH]c(=O)c(C(F)(F)C(F)(F)F)c2c1CC(c1ccncc1)CC2 (stereo not drawn) [Example 16, 1-methyl-4-pentafluoroethyl-7-(4-pyridyl)-5,6,7,8-tetrahydro-3(2H)isoquinolinone] | 3 | -15.9 | +29.1% |
| CCc1c2c(c(C)[nH]c1=O)CC(c1ccccn1)CC2 (stereo not drawn) [Example 17, 4-ethyl-1-methyl-7-(2-pyridyl)-5,6,7,8-tetrahydro-3(2H)isoquinolinone] | 0.1 | -2.1 | +15.0% |
| Cc1[nH]c(=O)c(C(C)(C)O)c2c1CC(c1ccccn1)CC2 (stereo not drawn) [Example 18, 4-(2-(2-hydroxypropyl))-1-methyl-7-(2-pyridyl)-5,6,7,8-teterahydro-3(2H)isoquinolinone] | 0.3 | -8.3 | +30.1% |
| C=C(C)c1c2c(c(C)[nH]c1=O)CC(c1ccccn1)CC2 (stereo not drawn) [Example 19, 4-isopropenyl-1-methyl-7-(2-pyridyl)-5,6,7,8-teterahydro-3(2H)isoquinolinon] | 0.1 | -15.9 | +27.6% |
